Source: paper PMC8746705, “Comparison of Experimental Strategies to Study L-Type Amino Acid Transporter 1 (LAT1) Utilization by Ligands” (Molecules, 2021)

Tests used:
[1] = system: brain amino acids L-Leu, L-Trp, L-Tyr and L-Tyr metabolites; test: Brain amino acid homeostasis after i.p. dose to mice; format: in vivo; conditions: mouse brain, single i.p. dose 25 µmol/kg; for Brain 3,4-dihydroxyphenylacetic acid levels: compound 2: 2 and 4 h compared to first time point (10 min)
Method: Adult male mice weighing 25 ± 5 g were supplied by Envigo (Venray, Netherlands). Mice were housed in stainless steel cages on a 12 h light (07:00–19:00) and 12 h dark (19:00–07:00) cycle at an ambient temperature of 22 ± 1 °C with a relative humidity of 50–60%. All experiments were carried out during the light phase. Tap water and food pellets (Lactamin R36; Lactamin AB, Södertälje, Sweden) were available ad libitum. A dose of 25 µmol/kg of compound 1, 2, or 8–11 was given as a bolus injection (i.p.) to mice. The mice were decapitated at selected time points between (10–360 min) and brain tissues were collected for sample preparation to be analyzed by liquid chromatography-mass spectrometric (LC-MS/MS) analysis.
Brain samples were prepared similarly as described above by homogenizing the pre-weigh tissues with ultrapure water (1:3). Subsequently, 100 µL of the homogenates was taken, and the proteins were precipitated with 300 µL of ACN containing the internal standard (labetalol).
Samples were vortexed and centrifuged at 10,000× g at 4 °C for 10 min. 200 µL of supernatant was mixed with 100 µL of ultrapure water and injected to LC-MS/MS equipment described above. The amounts of three known LAT1-utilizing amino acids, L-Leu, L-Tyr, and L-Trp, and two L-Tyr metabolites, namely p-hydroxyphenylacetate and 3,4-dihydroxyphenylacetic acid, were quantified with a method described earlier. […] Data were acquired using the Agilent MassHunter Workstation Acquisition software (Data Acquisition for Triple Quadrupole Mass Spectrometer, version B.03.01) and processed and analyzed with Quantitative Analysis (B.04.00) software. The lower limit of quantification (LLOQ) for the amino acids in tissue samples was 0.1 nM for L-Leu, L-Tyr, and L-Trp and 1 nM for p-hydroxyphenylacetate and 3,4-dihydroxyphenylacetic acid. […] The concentrations of the amino acids and their metabolites were calculated from the standard curve that was prepared by spiking known amounts of compounds to ACN including the selected internal standard.

[2] = Stability / bioconversion of prodrugs to parent drugs (biological media, 0.1 M NaOH cell lysing); format: in vitro ADME; conditions: cell lysate samples for LC-MS/MS (Table S1 footnote)
Description: LAT1-utilizing prodrugs 1–15 (Figure 1) were selected for this study based on their ability to utilize LAT1 expressed in cells used in our previous studies. Therefore, the syntheses of these compounds are not described herein as they have been reported earlier. These compounds include prodrugs of an investigational immunosuppressive agent, perforin inhibitor (1), non-steroidal anti-inflammatory drugs (NSAIDs), ketoprofen (2–4, 14), salicylic acid (8), flurbiprofen (9 and 12), ibuprofen (10 and 13) and naproxen (11 and 15), as well as the polyphenolic antioxidant, ferulic acid (5–7). […] In addition, all NSAID prodrugs (compounds 2–4, 9–15) were prepared from their pure S-enantiomers. Prodrugs of ferulic acid (compounds 5–7) were mixtures of E- and […], which were interconvertible over time. […] Therefore, both prodrug and the released parent drug proportions were quantified and taken into account when calculating concentrations transported into the cells.
1. LC-MS/MS ionization parameters of compounds 1-15
Table S1. Ionization parameters for the LC-MS/MS methods of the studied compounds.
Precursor Product Fragmentor Collision Flow rate Gradient LLOQ
Compound ion ion(s) Voltage (V) Energy (mL/min) (A:B) (nM) […]
perforin inhibitor 1a and therefore, their transitions with a positive ion mode are reported only as KPF or as a prodrug and parent drug in parentheses. […]
drugs (ferulic acid (FA), flurbiprofen (FLB), ibuprofen (IBU), and naproxen (NPX), respectively), whose transitions with a negative ion mode are reported below the studied LAT1 -utilizing compounds i n parentheses.

LAT1 [3] = target: T1, LAT1 (Mus musculus, UniProt Q9Z127); test: Cellular uptake of L-leucine after pre-incubation of BV2 cells with the compounds; format: cell-based; conditions: 100 µM (L-glutamine 2 mM) pre-incubated 10 min or 3 h, L-leucine 1–400 µM, 5 min
Method: The ability of compounds 1–15 to affect the uptake of a known LAT1 substrate L-leucine was evaluated by pre-incubating the BV2 cells at 37 °C for 10 min or 3 h with uptake buffer pH 7.4 (250 μL) containing 100 µM of compounds 1–15 or thyroxin (T4), or known nuclear receptor inducible compounds, phenobarbital (constitutive androstane receptor, CAR), and dexamethasone (pregnane X receptor, PXR) as controls. […] After incubation, the reaction was stopped by adding 250 µL of ice-cold HBSS, and the cells were washed two times with ice-cold HBSS. The cells were then lysed with 500 μL of 0.1 M NaOH (60 min) and the lysate was mixed with 3.5 mL of Emulsifier safe cocktail (Ultima Gold, PerkinElmer, Waltham, MA, USA). The radioactivity in the cells was measured by liquid scintillation counting (MicroBeta^2 counter, PerkinElmer Waltham, MA, USA). The results were multiplied by the amount of un-labeled proportion of L-leucine in each sample.

LAT1 [4] = target: T1, LAT1; set-up: method as in earlier work; conditions: BV2 cells; probe [14C]-L-Leu; mean ± SD; published earlier; ref [31] or [33]; read-out: IC50 of [14C]-L-Leu uptake; cited from earlier work

T1 sequence (Q9Z127 whole entry): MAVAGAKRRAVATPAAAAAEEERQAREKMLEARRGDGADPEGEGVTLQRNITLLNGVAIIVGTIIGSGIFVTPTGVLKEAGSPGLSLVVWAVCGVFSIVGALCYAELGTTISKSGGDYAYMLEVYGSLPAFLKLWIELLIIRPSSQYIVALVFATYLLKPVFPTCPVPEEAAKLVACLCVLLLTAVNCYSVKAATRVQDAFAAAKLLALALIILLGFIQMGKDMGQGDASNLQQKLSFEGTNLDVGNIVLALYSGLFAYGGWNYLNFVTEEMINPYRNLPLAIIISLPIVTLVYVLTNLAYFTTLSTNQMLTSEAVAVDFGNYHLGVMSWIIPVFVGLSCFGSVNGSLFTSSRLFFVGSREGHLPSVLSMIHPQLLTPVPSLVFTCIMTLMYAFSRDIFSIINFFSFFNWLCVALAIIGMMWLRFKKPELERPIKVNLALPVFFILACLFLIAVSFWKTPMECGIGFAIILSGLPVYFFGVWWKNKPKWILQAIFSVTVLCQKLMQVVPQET
T1 sequence (P10852 whole entry partner): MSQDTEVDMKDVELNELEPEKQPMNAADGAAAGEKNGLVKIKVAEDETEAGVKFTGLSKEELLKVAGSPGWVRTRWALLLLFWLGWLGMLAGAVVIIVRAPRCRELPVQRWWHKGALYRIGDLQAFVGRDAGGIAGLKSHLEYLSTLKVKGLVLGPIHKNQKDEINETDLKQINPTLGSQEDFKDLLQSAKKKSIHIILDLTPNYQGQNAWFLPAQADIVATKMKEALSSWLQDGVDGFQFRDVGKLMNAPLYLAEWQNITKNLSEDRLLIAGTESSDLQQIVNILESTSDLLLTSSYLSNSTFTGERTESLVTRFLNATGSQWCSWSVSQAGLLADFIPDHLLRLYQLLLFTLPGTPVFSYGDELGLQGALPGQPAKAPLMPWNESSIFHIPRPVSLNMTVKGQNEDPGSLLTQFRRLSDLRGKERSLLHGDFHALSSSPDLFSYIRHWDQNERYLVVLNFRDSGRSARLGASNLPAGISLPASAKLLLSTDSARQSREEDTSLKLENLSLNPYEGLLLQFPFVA

In the case of `NC(Cc1cccc(C(=O)Oc2ccc(-c3ccc(-c4ccc5c(c4)COC5=O)s3)cc2)c1)C(=O)O` (stereo not drawn) [Compound 1], the Brain p-hydroxyphenylacetate levels ([1]; after 30 min of the bolus injection compared to other time points) is reported as “significantly lower” and the “Conversion to parent drug in the analysed samples” value (“Conversion to parent drug” below) [2] is reported as “partly”.

In the case of `COc1cc(/C=C/C(=O)Oc2cccc(C[C@H](N)C(=O)O)c2)ccc1O` [Compound 7], the “Conversion to parent drug” value [2] is reported as “partly converted to their parent”.

In the case of `C[C@H](C(=O)Nc1cccc(C[C@H](N)C(=O)O)c1)c1cccc(C(=O)c2ccccc2)c1` [Compound 2], the “Effect on cellular uptake of L-Leu after pre-incubation” value (LAT1 [3]) is reported as “induced the uptake of L-Leu” and the “Brain 3,4-dihydroxyphenylacetic acid levels” value [1] is reported as “significant reduction”.

For `N[C@@H](Cc1cccc(NC(=O)c2ccccc2O)c1)C(=O)O` [Compound 8], the “Brain 3,4-dihydroxyphenylacetic acid levels” value [1] is listed as “Not detected at all” and the IC50 (LAT1 [4]) is listed as 18.9 ± 1.6 µM.

In the case of `C[C@H](C(=O)Oc1cccc(C[C@H](N)C(=O)O)c1)c1cccc(C(=O)c2ccccc2)c1` [Compound 4], the “Conversion to parent drug” value [2] is reported as “fully converted into ketoprofen”.

In the case of `COc1ccc2cc([C@H](C)C(=O)Oc3cccc(C[C@H](N)C(=O)O)c3)ccc2c1` [Compound 15], the “Conversion to parent drug” value [2] is reported as “partly converted to their parent”.

For `COc1cc(C=CC(=O)NCc2cccc(CC(N)C(=O)O)c2)ccc1O` (stereo not drawn) [Compound 5], the “Effect on cellular uptake of L-Leu after pre-incubation” value (LAT1 [3]) was “induced the uptake of L-Leu”.

In the case of `C[C@H](C(=O)Oc1cccc(C[C@H](N)C(=O)O)c1)c1ccc(-c2ccccc2)c(F)c1` [Compound 12], the “Conversion to parent drug” value [2] is given as “partly converted to their parent” and the IC50 (LAT1 [4]) is given as 4.2 ± 1.2 µM.
